One assay has as its system T. gondii TgMAPKL1 L162Q. In words: T. gondii proliferation inhibition, remaining host cell nuclei (DAPI), TgMAPKL1 L162Q strain. The note with it: for EC50: read-out: TgMAPKL1 L162Q EC50 (95% CI), remaining host cell nuclei, 5 days. In kind it is cell-based, Toxoplasma gondii.
A further assay concerns T. gondii TgCDPK1 G128M. In words: T. gondii proliferation inhibition, remaining host cell nuclei (DAPI), TgCDPK1 G128M strain. In kind it is cell-based, Toxoplasma gondii.
In a further assay the test system is T. gondii parent strain. In words: T. gondii proliferation inhibition, remaining host cell nuclei (DAPI), parent strain. The note with it: read-out: parent EC50 (95% CI), 5 days. Format: cell-based, Toxoplasma gondii.
Assay [1] has as its system T. gondii TgCDPK1 G128M TgMAPKL1 L162Q. In words: T. gondii proliferation inhibition, remaining host cell nuclei (DAPI), double mutant G128M/L162Q. In kind it is cell-based, Toxoplasma gondii. The settings on record: for EC50: read-out: TgCDPK1 G128M TgMAPKL1 L162Q EC50 (95% CI), double mutant, remaining host cell nuclei, 5 days.
The test system of a further assay is T. gondii TgMAPKL1 S191Y. The note with it: cited from earlier work.
Assay [2] concerns T. gondii TgMAPKL1 parental strain (RH, β-galactosidase transgene). As to the kind of experiment: T. gondii proliferation inhibition assay, β-galactosidase readout, parent strain. In kind it is cell-based, Toxoplasma gondii. The note with it: read-out: TgMAPKL1 Parental EC50 (95% CI), β-galactosidase activity, 72 h.
The subject of the next assay is T. gondii TgCDPK1 G128T. In words: T. gondii proliferation inhibition, remaining host cell nuclei (DAPI), TgCDPK1 G128T strain. Format: cell-based, Toxoplasma gondii. The settings on record: read-out: TgCDPK1 G128T EC50 (95% CI), 5 days.
Assay [3] relates to T. gondii with a L162Q substitution in TgMAPKL1. As to the kind of experiment: T. gondii proliferation inhibition assay, β-galactosidase readout, TgMAPKL1 L162Q strain. The settings on record: for EC50: read-out: TgMAPKL1 L162Q EC50 (95% CI), TgMAPKL1 L162Q strain, β-galactosidase activity, 72 h; for Fold Increase EC50: TgMAPKL1 L162Q vs parent strain, β-galactosidase assay. Format: cell-based, Toxoplasma gondii.

The target of another assay is T1, TgCDPK1 128G (Toxoplasma gondii, UniProt Q9BJF5).
T1 sequence (Q9BJF5 1-507): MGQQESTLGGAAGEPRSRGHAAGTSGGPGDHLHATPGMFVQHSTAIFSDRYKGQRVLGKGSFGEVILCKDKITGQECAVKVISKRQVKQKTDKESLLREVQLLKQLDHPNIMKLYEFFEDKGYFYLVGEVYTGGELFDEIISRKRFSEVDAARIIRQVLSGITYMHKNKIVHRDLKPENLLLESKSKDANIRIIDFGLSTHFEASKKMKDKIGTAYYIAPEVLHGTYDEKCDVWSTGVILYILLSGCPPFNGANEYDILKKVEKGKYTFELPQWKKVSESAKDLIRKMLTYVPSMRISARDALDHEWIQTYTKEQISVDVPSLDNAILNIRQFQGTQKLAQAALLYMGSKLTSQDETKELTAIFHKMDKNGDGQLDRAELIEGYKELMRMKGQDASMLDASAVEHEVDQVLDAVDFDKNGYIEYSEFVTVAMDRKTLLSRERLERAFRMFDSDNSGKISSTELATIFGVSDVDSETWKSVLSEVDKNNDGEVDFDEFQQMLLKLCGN
In words: TgCDPK1 enzyme inhibition assay (Kinase Glo), wild type glycine gatekeeper. Format: biochemical. The note with it: read-out: TgCDPK1 128G IC50, 10 μM ATP. Background: Kinase-Glo measures the ATP left after a reaction by luminescence.

The target in a further assay is T2, TgCDPK1 128M (Toxoplasma gondii, UniProt Q9BJF5, G128M).
T2 sequence (Q9BJF5 1-507 G128M): T1 sequence (Q9BJF5 1-507) with G128M
In words: TgCDPK1 enzyme inhibition assay (Kinase Glo), methionine gatekeeper mutant. In kind it is biochemical. The note with it: for Fold Increase IC50: TgCDPK1 128M vs 128G; for IC50: read-out: TgCDPK1 128M IC50, introduced methionine gatekeeper, 10 μM ATP.

The test system of assay [4] is RH-strain T. gondii tachyzoites. In words: Determination of mutagen concentration killing T. gondii tachyzoites. The note with it: RH-strain tachyzoites expressing β-galactosidase and GFP. In kind it is cell-based, Toxoplasma gondii.
A further assay has as its system T. gondii cell cycle. The note with it: cited from earlier work.
Where [5] appears, read: vs parent strain, host cell nuclei assay.

Residue numbers refer to the chain shown, from its start.

In general, EC50 refers to the concentration that produces a half-maximal response. As to `CC(C)(C)n1nc(Cc2cccc3ccccc23)c2c(N)ncnc21` [1-NM-PP1], the EC50 in the assay on T. gondii TgMAPKL1 L162Q was determined as 75 nM; in the assay on T. gondii parent strain, 19 nM; in assay [1], 1700 nM. Also, in the assay on T. gondii TgMAPKL1 L162Q (setting [5]), the “TgMAPKL1 L162Q fold increase EC50” value was determined as 3.9 fold. Moreover, the “TgCDPK1 G128M fold increase EC50” value in the assay with T. gondii TgCDPK1 G128M (setting [5]) is recorded as 7.4 fold. The “TgCDPK1 G128M TgMAPKL1 L162Q fold increase EC50” value in [1] (double mutant vs parent strain, host cell nuclei assay) worked out at 89.5 fold. For the same molecule, in the assay with T. gondii TgMAPKL1 S191Y, the “resistance conferred by TgMAPKL1 S191Y substitution” value is reported as “conferred resistance”.
In the case of `CCOc1ccc2cc(-c3nn(CC4CCN(C)CC4)c4ncnc(N)c34)ccc2c1` [BKI-1294], the EC50 in assay [2] turned out to be 22 nM; in the assay with T. gondii TgMAPKL1 L162Q, 450 nM; in the assay with T. gondii TgCDPK1 G128M (read-out: TgCDPK1 G128M EC50 (95% CI), remaining host cell nuclei, 5 days), 1500 nM; with T. gondii parent strain it was 230 nM; in assay [1], 3200 nM; in the assay on T. gondii TgCDPK1 G128T, 1700 nM. For the same molecule, the EC50 in assay [3] was 66 nM.
The IC50 is the concentration that gives 50% inhibition. As for `CCOc1ccc2cc(-c3nn(CC4CCN(C)CC4)c4ncnc(N)c34)ccc2n1` [BKI-1369], the EC50 in [2] turned out to be 38 nM. The IC50 on TgCDPK1 128G was found to be 6 nM. For the same molecule, in assay [3], the “Fold Increase EC50” value is recorded as 3.20 fold and the EC50 turned out to be 120 nM. On TgCDPK1 128M, the “Fold Increase IC50” value is given as 2246 fold and the IC50 was found to be 13700 nM.
For `CCOc1ccc2cc(-c3nn(C(C)(C)C)c(N)c3C(N)=O)cnc2c1` [BKI-1517], the EC50 in assay [2] is 80 nM; in assay [3], 290 nM.
Regarding `CCOc1ccc2cc(-c3nn(C4CCOCC4)c(N)c3C(N)=O)ccc2n1` [BKI-1841], the EC50 in assay [2] was found to be 140 nM; in assay [3], 400 nM. Also, the results for the IC50 at TgCDPK1 128G and on TgCDPK1 128M were 30 nM and 17600 nM, respectively. Moreover, the “Fold Increase EC50” value in assay [3] is on record as 2.90 fold. In addition, the “Fold Increase IC50” value at TgCDPK1 128M is 585 fold.
For `CCN(N=O)C(N)=O` [ENU, N-ethyl-N-nitrosourea], in assay [4], the “concentration required to kill 70% of a population of tachyzoites” value came out at 2 mM.
On to `Cc1cccc(-c2[nH]c(C(C)(C)C)nc2-c2ccc3c(c2)OCO3)n1` [SB505124], for which the “effect on T. gondii cell cycle” value in the assay with T. gondii cell cycle is given as “arrested the T. gondii cell cycle”.

(Values after publication PMC12172689 (ACS infectious diseases, 2025).)
